We go through two molecules from patent publication US20260053798A1, “COMBINATION THERAPY FOR A RAS RELATED DISEASE OR DISORDER” (Revolution Medicines, Inc., priority 2023, published 2026).

Molecules are shown by their SMILES.

For one test, the system named is PDAC KRAS^AMP models. The test can be described thus: RMC-6236 plus chemotherapy in PDAC KRAS^AMP models. In kind it is in vivo. Conditions: FIG. 4.
In a further test the test system is PI3K activity. The test can be described thus: PI3K activity in KRAS wild-type and KRAS^G12X mutant lines. The test is classed as cell-based. Conditions: for PI3K activity: FIG. 5 left.
Another test relates to PIP3 levels. The test can be described thus: PIP3 levels in KRAS-mutant PDAC lines. In kind it is cell-based. Conditions: KRAS^G12D-mutant PDAC lines; FIG. 5 right.
The subject of another test is pERK (MAPK signaling). Description: pERK (MAPK signaling) levels in KRAS mutant cell lines. The test is classed as cell-based. To be noted: FIG. 6.

Regarding `CCn1c(-c2cc(N3CCN(C)CC3)cnc2[C@H](C)OC)c2c3cc(ccc31)-c1csc(n1)C[C@H](NC(=O)[C@H]1C[C@@H]1C)C(=O)N1CCC[C@H](N1)C(=O)OCC(C)(C)C2` [RMC-6236], the “activity and durability in combination” value in the test with PDAC KRAS^AMP models (combined with FOLFIRINOX) is “combination benefit resulting in increased activity and durability”; in the test with PDAC KRAS^AMP models (combined with GEM+Abraxane) it was “combination benefit resulting in increased activity and durability”. Further, in the test with PDAC KRAS^AMP models (monotherapy, EGFR-mutant PDAC (so in the source)), the “monotherapy activity versus chemotherapy” value is recorded as “comparable activity against EGFR-mutant PDAC as chemotherapy”.
As to `CCn1c(-c2cc(N3CCN(C4CC4)CC3)cnc2[C@H](C)OC)c2c3cc(ccc31)-c1csc(n1)C[C@H](NC(=O)C1[C@H]3COC[C@@H]13)C(=O)N1CCC[C@H](N1)C(=O)OCC(C)(C)C2` (stereo partly shown) [RMC-7977], the PI3K activity entry in the test with PI3K activity (KRAS^G12C) is “moderate inhibitory effect”; with PI3K activity (KRAS^G12D), “completely suppressed”; with PI3K activity (KRAS^G12R line), “no effect”; with PI3K activity (KRAS^G12V), “moderate inhibitory effect”; in the test with PI3K activity (KRAS^WT) it was “completely suppressed”. For the same molecule, the “PI3K and MAPK activity (summary statement)” value in the test with PI3K activity (KRAS^G12R lines) was “not”; in the test on PI3K activity (isogenic and mutant KRAS^G12D lines), “suppresses both PI3K and MAPK activity”. The PIP3 levels result with PIP3 levels is given as “suppresses”. Moreover, the “levels of pERK (MAPK signaling)” value in the test on pERK (MAPK signaling) (KRAS^G12D mutant cell lines) and in the test on pERK (MAPK signaling) (KRAS^G12R mutant cell lines) was “decreased” in each case.
